# Measured values taken from patent US10221160B2, “Metalloenzyme inhibitor compounds” (Mycovia Pharmaceuticals, Inc., priority 2012, dated 2019).
# System: C. albicans
# Assay: Minimum Inhibitory Concentration (MIC), CLSI M27-A2
# Type: cell-based
# Details: Candida albicans, 48 h, about 50% growth reduction, approximately 48 h at 35 °C, read-out: Candida MIC
# Procedure: A. Minimum Inhibitory Concentration (MIC) Compounds were assessed for their ability to inhibit the growth of common strains of fungus, C. albicans using a standardized procedure (CLSI M27-A2). Stock solutions of the test compounds and standards were prepared in DMSO at 1,600 μg/mL (C. albicans). Eleven, serial, one-half dilutions of compounds were prepared in 96-well plates in RPMI+MOPS. The assay concentration ranges were 8-0.001 μg/mL (C. albicans). Cell suspensions of C. albicans were prepared and added to each well at concentrations of approximately 3.7×10^3 colony-forming-units per milliliter (cfu/mL). All testing was in duplicate. The inoculated plates were incubated for approximately 48 h at 35±1° C. At the completion of incubation the wells of each plate were evaluated visually for the presence of fungal growth. […] For QC purposes C. krusei isolate ATCC 6258 (4.0×10^3 cfu/mL) was included in the VOR assay.
row,Structure (SMILES),MIC [µg/mL]
1,"N#Cc1ccc(-c2ccc(C(F)(F)C(O)(Cn3cnnn3)c3ccc(F)cc3F)nc2)cc1 (centres unmarked) [Example 1, 4-(6-(2-(2,4-Difluorophenyl)-1,1-difluoro-2-hydroxy-3-(1H-tetrazol-1-yl)propyl)pyridin-3-yl)benzonitrile]",≤ 0.016

# Same assay, conditions: Candida albicans, rating scale, read-out: Candida MIC Rating
row,Structure (SMILES),MIC [µg/mL]
1,"N#Cc1ccc(-c2ccc(C(F)(F)C(O)(Cn3cnnn3)c3ccc(F)cc3F)nc2)cc1 (centres unmarked) [Example 1, 4-(6-(2-(2,4-Difluorophenyl)-1,1-difluoro-2-hydroxy-3-(1H-tetrazol-1-yl)propyl)pyridin-3-yl)benzonitrile]",< 0.5
2,"N#Cc1cccc(-c2ccc(C(F)(F)C(O)(Cn3cnnn3)c3ccc(F)cc3F)nc2)c1 (centres unmarked) [Example 3, 3-(6-(2-(2,4-Difluorophenyl)-1,1-difluoro-2-hydroxy-3-(1H-tetrazol-1-yl)propyl)pyridin-3-yl)benzonitrile]",< 0.5
3,"CC(C)Oc1ccc(-c2ccc(C(F)(F)C(O)(Cn3cnnn3)c3ccc(F)cc3F)nc2)cc1 (centres unmarked) [Example 4, 2-(2,4-Difluorophenyl)-1,1-difluoro-1-(5-(4-isopropoxyphenyl)pyridin-2-yl)-3-(1H-tetrazol-1-yl)propan-2-ol]",< 0.5
4,"OC(Cn1cnnn1)(c1ccc(F)cc1F)C(F)(F)c1ccc(-c2ccc(F)cc2)cn1 (centres unmarked) [Example 5, 2-(2,4-Difluorophenyl)-1,1-difluoro-1-(5-(4-fluorophenyl)pyridin-2-yl)-3-(1H-tetrazol-1-yl)propan-2-ol]",< 0.5
5,"OC(Cn1cnnn1)(c1ccc(F)cc1F)C(F)(F)c1ccc(-c2cccc(OC(F)(F)F)c2)cn1 (centres unmarked) [Example 6, 2-(2,4-Difluorophenyl)-1,1-difluoro-3-(1H-tetrazol-1-yl)-1-(5-(3-(trifluoromethoxy)phenyl)pyridin-2-yl)propan-2-ol]",< 0.5
6,"OC(Cn1cnnn1)(c1ccc(F)cc1F)C(F)(F)c1ccc(-c2ccc(OC(F)(F)F)cc2)cn1 (centres unmarked) [Example 7, 2-(2,4-Difluorophenyl)-1,1-difluoro-3-(1H-tetrazol-1-yl)-1-(5-(4-(trifluoromethoxy)phenyl)pyridin-2-yl) propan-2-ol]",< 0.5
7,"OC(Cn1cnnn1)(c1ccc(F)cc1F)C(F)(F)c1ccc(-c2cccc(Cl)c2)cn1 (centres unmarked) [Example 8, 1-(5-(3-Chlorophenyl)pyridin-2-yl)-2-(2,4-difluorophenyl)-1,1-difluoro-3-(1H-tetrazol-1-yl)propan-2-ol]",< 0.5
8,"OC(Cn1cnnn1)(c1ccc(F)cc1F)C(F)(F)c1ccc(-c2ccc(Cl)cc2)cn1 (centres unmarked) [Example 9, 1-(5-(4-Chlorophenyl)pyridin-2-yl)-2-(2,4-difluorophenyl)-1,1-difluoro-3-(1H-tetrazol-1-yl)propan-2-ol]",< 0.5
9,"OC(Cn1cnnn1)(c1ccc(F)cc1F)C(F)(F)c1ccc(-c2cc(F)ccc2F)cn1 (centres unmarked) [Example 10, 2-(2,4-Difluorophenyl)-1-(5-(2,5-difluorophenyl)pyridin-2-yl)-1,1-difluoro-3-(1H-tetrazol-1-yl)propan-2-ol]",< 0.5
10,"OC(Cn1cncn1)(c1ccc(F)cc1F)C(F)(F)c1ccc(-c2ccc(F)cc2)cn1 (centres unmarked) [Example 16, 2-(2,4-Difluorophenyl)-1,1-difluoro-1-(5-(4-fluorophenyl)pyridin-2-yl)-3-(1H-1,2,4-triazol-1-yl)propan-2-ol]",< 0.5
11,"OC(Cn1cncn1)(c1ccc(F)cc1F)C(F)(F)c1ccc(-c2ccc(OC(F)(F)F)cc2)cn1 (centres unmarked) [Example 18, 2-(2,4-Difluorophenyl)-1,1-difluoro-3-(1H-1,2,4-triazol-1-yl)-1-(5-(4-(trifluoromethoxy)phenyl)pyridin-2-yl) propan-2-ol]",< 0.5
12,"CC(C)(C)Oc1ccc(-c2ccc(C(F)(F)C(O)(Cn3cnnn3)c3ccc(F)cc3F)nc2)cc1 (centres unmarked) [Example 28, 1-(5-(4-(tert-Butoxy)phenyl)pyridin-2-yl)-2-(2,4-difluorophenyl)-1,1-difluoro-3-(1H-tetrazol-1-yl)propan-2-ol]",< 0.5

# Now from value to molecule:
row,MIC [µg/mL],Structure (SMILES)
1,> 4,"OC(Cn1ncnn1)(c1ccc(F)cc1F)C(F)(F)c1ccc(-c2ccc(OCC(F)(F)F)cc2)cn1 (centres unmarked) [Example 20, 2-(2,4-Difluorophenyl)-1,1-difluoro-3-(2H-tetrazol-1-yl)-1-(5-(4-(2,2,2-trifluoroethoxy)phenyl)pyridin-2-yl)propan-2-ol]"
2,1.5 to 4,OC(Cn1ncnn1)(c1ccc(F)cc1F)C(F)(F)c1ccc(-c2cccc(F)c2)cn1 (centres unmarked) [Example 21]
3,1.5 to 4,OC(Cn1ncnn1)(c1ccc(F)cc1F)C(F)(F)c1ccc(-c2ccc(C(F)(F)F)cc2)cn1 (centres unmarked) [Example 22]
4,< 0.5,"Oc1ccc(-c2ccc(C(F)(F)C(O)(Cn3cnnn3)c3ccc(F)cc3F)nc2)cc1 (centres unmarked) [Example 23, 4-(6-(2-(2,4-Difluorophenyl)-1,1-difluoro-2-hydroxy-3-(1H-tetrazol-1-yl)propyl)pyridin-3-yl)phenol]"
5,< 0.5,"CC(C)c1cccc(-c2ccc(C(F)(F)C(O)(Cn3cnnn3)c3ccc(F)cc3F)nc2)c1 (centres unmarked) [Example 24, 2-(2,4-Difluorophenyl)-1,1-difluoro-1-(5-(3-isopropylphenyl)pyridin-2-yl)-3-(1H-tetrazol-1-yl)propan-2-ol]"
6,< 0.5,"OC(Cn1cnnn1)(c1ccc(F)cc1F)C(F)(F)c1ccc(-c2ccc(F)c(F)c2)cn1 (centres unmarked) [Example 25, 2-(2,4-Difluorophenyl)-1-(5-(3,4-difluorophenyl)pyridin-2-yl)-1,1-difluoro-3-(1H-tetrazol-1-yl)propan-2-ol]"
7,< 0.5,"OC(Cn1cnnn1)(c1ccc(F)cc1F)C(F)(F)c1ccc(-c2cccc(OC(F)F)c2)cn1 (centres unmarked) [Example 26, 1-(5-(3-(Difluoromethoxy)phenyl)pyridin-2-yl)-2-(2,4-difluorophenyl)-1,1-difluoro-3-(1H-tetrazol-1-yl)propan-2-ol]"
8,< 0.5,"OC(Cn1cnnn1)(c1ccc(F)cc1F)C(F)(F)c1ccc(-c2ccc(SC(F)(F)F)cc2)cn1 (centres unmarked) [Example 27, 2-(2,4-Difluorophenyl)-1,1-difluoro-3-(1H-tetrazol-1-yl)-1-(5-(4-((trifluoromethyl)thio)phenyl)pyridin-2-yl)propan-2-ol]"
9,< 0.5,"OC(Cn1cnnn1)(c1ccc(F)cc1F)C(F)(F)c1ccc(-c2ccc(Cl)c(F)c2)cn1 (centres unmarked) [Example 29, 1-(5-(4-Chloro-3-fluorophenyl)pyridin-2-yl)-2-(2,4-difluorophenyl)-1,1-difluoro-3-(1H-tetrazol-1-yl)propan-2-ol]"
10,< 0.5,"Oc1cccc(-c2ccc(C(F)(F)C(O)(Cn3cnnn3)c3ccc(F)cc3F)nc2)c1 (centres unmarked) [Example 30, 3-(6-(2-(2,4-Difluorophenyl)-1,1-difluoro-2-hydroxy-3-(1H-tetrazol-1-yl)propyl)pyridin-3-yl)phenol]"

# Same assay, conditions: Candida albicans, read-out: Candida MIC Rating
row,Structure (SMILES),MIC [µg/mL]
1,"OC(Cn1cnnn1)(c1ccc(F)cc1F)C(F)(F)c1ccc(-c2ccc(OCC(F)(F)C(F)(F)F)cc2)cn1 (centres unmarked) [Example 12, 2-(2,4-Difluorophenyl)-1,1-difluoro-1-(5-(4-(2,2,3,3,3-pentafluoropropoxy)phenyl)pyridin-2-yl)-3-(1H-tetrazol-1-yl)propan-2-ol]",< 0.5
2,"OC(Cc1cc[nH]n1)(c1ccc(F)cc1F)C(F)(F)c1ccc(-c2ccc(OC(F)(F)F)cc2)cn1 (centres unmarked) [Example 15, 2-(2,4-Difluorophenyl)-1,1-difluoro-3-(1H-pyrazol-3-yl)-1-(5-(4-(trifluoromethoxy)phenyl)pyridin-2-yl)propan-2-ol]",< 0.5

# Same assay, conditions: rating scale
row,Structure (SMILES),Candida MIC Rating
1,"OC(Cn1cnnn1)(c1ccc(F)cc1F)C(F)(F)c1ccc(-c2ccc(OCC(F)(F)F)cc2)cn1 (centres unmarked) [Example 11, 2-(2,4-Difluorophenyl)-1,1-difluoro-3-(1H-tetrazol-1-yl)-1-(5-(4-(2,2,2-trifluoroethoxy)phenyl)pyridin-2-yl)propan-2-ol]",A (≤0.5)
